Laboratory results taken from patent US20250161299A1, “ORAL PCLX-001 IN THE TREATMENT OF HUMAN CANCER” (PACYLEX PHARMACEUTICALS INC., priority 2022, published 2025).
“Also recorded” adds a separate entry of the source. Read-outs that look alike come from different tables or passages of the source.

Test: Phase I trial of oral PCLX-001: plasma pharmacokinetics, noncompartmental analysis (Phoenix WinNonlin 8.3)
Format: in vivo, human
Settings: for half-life / Tmax / AUC(0-inf) / Cmax / AUC(0-t): human, plasma, po; for half-life: read-out: Half-life (converted); for Tmax: read-out: Tmax; for AUC(0-t): read-out: AUClast or AUCtau
Source text: The clinical trial is entitled “Phase I Trial of PCLX-001 in B-cell Non-Hodgkin Lymphoma and Advanced Solid Malignancies” and registered at clinicaltrials.gov as NCT04836195. It is a phase I dose-escalation study of oral PCLX-001, conducted in a multicenter, non-randomized, open-label, non-controlled design. The study is comprised of two parts: Part A (single-agent dose escalation) and Part B (single-agent expansion cohorts).
Patients are to receive daily oral PCLX-001 on 28-day cycles, beginning with a starting dose of 20 mg.
[…] After dosing, the blood samples (volumes 3 mL) were serially collected into heparinized tubes from a right forearm butterfly cannula. All blood fluid specimens were frozen and later assayed using a validated UHPLC-MS detection method.
Noncompartmental pharmacokinetic analysis was performed using Phoenix WinNonlin 8.3 using trapezoidal rule and linear up log down methodology. WinNonlin was allowed to pick optimal terminal phases.
Nonparametric superposition was performed using Phoenix WinNonlin Nonparametric Superposition to predict steady state data based upon Day 1 data for each patient. It utilized the 8- and 24-hour time points for estimation of terminal phase for the purposes of this exercise. We simulated 20 mg daily oral dosing and simulations were conducted out to steady state. Results are show in FIGS. 5, 6, and 7.
In the non-compartmental analysis, Phoenix WinNonlin 8.3 trapezoidal rule was used, with linear up log down method. This allowed WinNonlin to pick optimal terminal phase (WinNonlin will accept Rsq adjusted to >0.7). Additional analysis to assess adequate fie included visual inspection of data, and AUCextrap should be <15%.
Phoenix WinNonlin 8.3 trapezoidal rule. Used linear up log down method. Allowed WinNonlin to pick optimal terminal phase (WinNonlin will accept Rsq adjusted >0.7).
Other analysis to assess adequate fit. Visual inspection of data. AUCextrap should be <15%.

[1] = 20 mg, Table 1A, Patient 115-002-004 (Patient 3), Day 15, 20 mg oral daily
[2] = 20 mg, Table 6, Patient 115-002-001, Day 1, 20 mg QD oral, Pantoprazole No
[3] = 20 mg, Table 6, Patient 115-002-001, Day 15, 20 mg QD oral, Pantoprazole No
[4] = 20 mg, Table 6, Patient 115-002-002, Day 1, 20 mg QD oral, Pantoprazole No
[5] = 20 mg, Table 6, Patient 115-002-002, Day 15, 20 mg QD oral, Pantoprazole No
[6] = 20 mg, Table 6, Patient 115-002-004, Day 1, 20 mg QD oral, Pantoprazole No
[7] = 20 mg, Table 6, Patient 115-002-004, Day 15, 20 mg QD oral, Pantoprazole No
[8] = 40 mg, Table 7, Patient 115-002-005, Day 1, 40 mg QD oral, Pantoprazole Yes
[9] = 40 mg, Table 7, Patient 115-002-005, Day 15, 40 mg QD oral, Pantoprazole Yes
[10] = 40 mg, Table 7, Patient 115-002-006, Day 1, 40 mg QD oral, Pantoprazole Yes
[11] = 40 mg, Table 7, Patient 115-002-006, Day 15, 40 mg QD oral, Pantoprazole Yes
[12] = 40 mg, Table 7, Patient 115-009-001, Day 1, 40 mg QD oral, Pantoprazole No
[13] = 40 mg, Table 7, Patient 115-009-001, Day 15, 40 mg QD oral, Pantoprazole No
[14] = 70 mg, Table 8, Patient 115-002-007, Day 1, 70 mg QD oral, Pantoprazole Yes
[15] = 70 mg, Table 8, Patient 115-002-007, Day 15, 70 mg QD oral, Pantoprazole Yes
[16] = 70 mg, Table 8, Patient 115-002-008, Day 1, 70 mg QD oral, Pantoprazole Yes
[17] = 70 mg, Table 8, Patient 115-002-008, Day 15, 70 mg QD oral, Pantoprazole Yes
[18] = 70 mg, Table 8, Patient 115-024-001, Day 1, 70 mg QD oral, Pantoprazole No
[19] = 70 mg, Table 8, Patient 115-024-001, Day 15, 70 mg QD oral, Pantoprazole No
[20] = 100 mg, Table 9, Patient 115-002-009, Day 1, 100 mg QD oral, Pantoprazole No
[21] = 100 mg, Table 9, Patient 115-002-010, Day 1, 100 mg QD oral, Pantoprazole No
[22] = 100 mg, Table 9, Patient 115-002-011, Day 1, 100 mg QD oral, Pantoprazole No
[23] = 100 mg, Table 9, Patient 115-002-011, Day 15, 100 mg QD oral, Pantoprazole No
[24] = 100 mg, Table 9, Patient 115-002-012, Day 1, 100 mg QD oral, Pantoprazole No
[25] = 100 mg, Table 9, Patient 115-002-012, Day 15, 100 mg QD oral, Pantoprazole No
[26] = 140 mg, Table 10, Patient 115-002-006, Day 1, Dose 140 mg QD oral, Concomitant Pantoprazole No
[27] = 140 mg, Table 10, Patient 115-002-006, Day 15, Dose 140 mg QD oral, Concomitant Pantoprazole No
[28] = 140 mg, Table 10, Patient 115-024-005, Day 1, Dose 140 mg QD oral, Concomitant Pantoprazole Yes
[29] = 140 mg, Table 10, Patient 115-024-005, Day 15, Dose 140 mg QD oral, Concomitant Pantoprazole Yes
[30] = 140 mg, Table 10, Patient 115-024-013, Day 1, Dose 140 mg QD oral, Concomitant Pantoprazole Yes
[31] = 140 mg, Table 10, Patient 115-024-013, Day 15, Dose 140 mg QD oral, Concomitant Pantoprazole Yes

Structure (SMILES): Cc1c(NS(=O)(=O)c2c(Cl)cc(-c3ccnc(N4CCNCC4)c3)cc2Cl)c(CC(C)C)nn1C [PCLX-001, 2,6-dichloro-N-(3-isobutyl-1,5-dimethyl-1H-pyrazol-4-yl)-4-(2-(piperazin-1-yl)pyridin-4-yl)benzene sulfonamide]
- half-life [1]: 6.86 h
- Tmax [1]: 0.5 h
- AUC(0-inf) [2]: 2030 ng·h/mL
- Cmax [2]: 360 ng/mL
- AUC(0-t) [2]: 1720 ng·h/mL
- half-life [2]: 8.34 h
- Tmax [2]: 1 h
- AUC(0-inf) [3]: 3600 ng·h/mL
- Cmax [3]: 479 ng/mL
- AUC(0-t) [3]: 2750 ng·h/mL
- half-life [3]: 10.9 h
- Tmax [3]: 1 h
- Cmax [4]: 142 ng/mL
- AUC(0-t) [4]: 1300 ng·h/mL
- Tmax [4]: 4 h
- AUC(0-inf) [5]: 2440 ng·h/mL
- Cmax [5]: 243 ng/mL
- AUC(0-t) [5]: 2010 ng·h/mL
- half-life [5]: 9.42 h
- Tmax [5]: 2 h
- AUC(0-inf) [6]: 1880 ng·h/mL
- Cmax [6]: 326 ng/mL
- AUC(0-t) [6]: 1780 ng·h/mL
- half-life [6]: 5.51 h
- Tmax [6]: 2 h
- AUC(0-inf) [7]: 2110 ng·h/mL
- Cmax [7]: 356 ng/mL
- AUC(0-t) [7]: 1900 ng·h/mL
- half-life [7]: 6.47 h
- Tmax [7]: 0.5 h
- AUC(0-inf) [8]: 4900 ng·h/mL
- Cmax [8]: 868 ng/mL
- AUC(0-t) [8]: 4430 ng·h/mL
- half-life [8]: 7.5 h
- Tmax [8]: 0.5 h
- AUC(0-inf) [9]: 7060 ng·h/mL
- Cmax [9]: 802 ng/mL
- AUC(0-t) [9]: 6680 ng·h/mL
- half-life [9]: 5.54 h
- Tmax [9]: 2 h
- Cmax [10]: 7.13 ng/mL
- AUC(0-t) [10]: 79.6 ng·h/mL
- Tmax [10]: 4 h
- Cmax [11]: 40.8 ng/mL
- AUC(0-t) [11]: 175 ng·h/mL
- Tmax [11]: 4 h
- AUC(0-inf) [12]: 12600 ng·h/mL
- Cmax [12]: 1670 ng/mL
- AUC(0-t) [12]: 10100 ng·h/mL
- half-life [12]: 10.8 h
- Tmax [12]: 1 h
- AUC(0-inf) [13]: 18300 ng·h/mL
- Cmax [13]: 1480 ng/mL
- AUC(0-t) [13]: 13700 ng·h/mL
- half-life [13]: 11.9 h
- Tmax [13]: 2 h
- Cmax [14]: 158 ng/mL
- AUC(0-t) [14]: 1960 ng·h/mL
- Tmax [14]: 4 h
- Cmax [15]: 602 ng/mL
- AUC(0-t) [15]: 8130 ng·h/mL
- Tmax [15]: 4 h
- Cmax [16]: 408 ng/mL
- AUC(0-t) [16]: 4550 ng·h/mL
- Tmax [16]: 8 h
- Cmax [17]: 170 ng/mL
- AUC(0-t) [17]: 3380 ng·h/mL
- Tmax [17]: 8 h
- Cmax [18]: 1430 ng/mL
- AUC(0-t) [18]: 9400 ng·h/mL
- half-life [18]: 9.44 h
- Tmax [18]: 1 h
- Cmax [19]: 629 ng/mL
- AUC(0-t) [19]: 7300 ng·h/mL
- Tmax [19]: 4 h
- AUC(0-inf) [20]: 15400 ng·h/mL
- Cmax [20]: 1740 ng/mL
- AUC(0-t) [20]: 14800 ng·h/mL
- half-life [20]: 5.02 h
- Tmax [20]: 2 h
- AUC(0-inf) [21]: 22400 ng·h/mL
- Cmax [21]: 2490 ng/mL
- AUC(0-t) [21]: 20000 ng·h/mL
- half-life [21]: 7.17 h
- Tmax [21]: 2 h
- AUC(0-inf) [22]: 16200 ng·h/mL
- Cmax [22]: 1650 ng/mL
- AUC(0-t) [22]: 13200 ng·h/mL
- half-life [22]: 9.6 h
- Tmax [22]: 2 h
- Cmax [23]: 1160 ng/mL
- AUC(0-t) [23]: 17900 ng·h/mL
- Tmax [23]: 4 h
- Cmax [24]: 1210 ng/mL
- AUC(0-t) [24]: 12600 ng·h/mL
- Tmax [24]: 4 h
- AUC(0-inf) [25]: 19400 ng·h/mL
- Cmax [25]: 1530 ng/mL
- AUC(0-t) [25]: 17000 ng·h/mL
- half-life [25]: 7.56 h
- Tmax [25]: 2 h
- AUC(0-inf) [26]: 24200 ng·h/mL
- Cmax [26]: 2710 ng/mL
- AUC(0-t) [26]: 21200 ng·h/mL
- half-life [26]: 7.91 h
- Tmax [26]: 0.5 h
- AUC(0-inf) [27]: 41900 ng·h/mL
- Cmax [27]: 2200 ng/mL
- AUC(0-t) [27]: 26000 ng·h/mL
- half-life [27]: 16.4 h
- Tmax [27]: 2 h
- AUC(0-inf) [28]: 4160 ng·h/mL
- Cmax [28]: 406 ng/mL
- AUC(0-t) [28]: 3630 ng·h/mL
- half-life [28]: 7.56 h
- Tmax [28]: 1 h
- AUC(0-inf) [29]: 7180 ng·h/mL
- Cmax [29]: 295 ng/mL
- AUC(0-t) [29]: 4320 ng·h/mL
- half-life [29]: 17.4 h
- Tmax [29]: 2 h
- AUC(0-inf) [30]: 11500 ng·h/mL
- Cmax [30]: 2190 ng/mL
- AUC(0-t) [30]: 10900 ng·h/mL
- half-life [30]: 5.86 h
- Tmax [30]: 1 h
- AUC(0-inf) [31]: 14300 ng·h/mL
- Cmax [31]: 1510 ng/mL
- AUC(0-t) [31]: 11000 ng·h/mL
- half-life [31]: 10.1 h
- Tmax [31]: 1 h
- peak plasma concentrations versus concentrations active in cultured cells (patients 1, 2 and 3, 20 mg oral daily): exceeded those needed to suppress cultured human cancer cell growth
- trough plasma concentrations (immediately prior to dosing on day 2, 15, and 22) (patients 1, 2 and 3, 20 mg oral daily, versus allometric scaling from mice, rats, dogs): higher than anticipated
- effect of pantoprazole on systemic exposure / oral absorption (patients taking pantoprazole vs not): lower in patients taking pantoprazole; also recorded: reduces oral absorption
